Patent US7250442B2, “Dihydroindol-2-one derivatives as steroid hormone nuclear receptor modulators” (Eli Lilly and Company, priority 2003, dated 2007)

Each compound was assayed against T1, human MR (Homo sapiens, UniProt P08235) (assay: Mineralocorticoid Receptor Binding Assay ([3H]-aldosterone displacement)). Details: full length human MR expressed in Sf9 cells, 0.5 nM [3H]-aldosterone.
T1 construct: The full length human MR gene is cloned from a human kidney or human brain cDNA library; made in house; host or cells: Sf9 insect cells (baculovirus, pAcHLT transfer vector)
T1 sequence (P08235 1-984): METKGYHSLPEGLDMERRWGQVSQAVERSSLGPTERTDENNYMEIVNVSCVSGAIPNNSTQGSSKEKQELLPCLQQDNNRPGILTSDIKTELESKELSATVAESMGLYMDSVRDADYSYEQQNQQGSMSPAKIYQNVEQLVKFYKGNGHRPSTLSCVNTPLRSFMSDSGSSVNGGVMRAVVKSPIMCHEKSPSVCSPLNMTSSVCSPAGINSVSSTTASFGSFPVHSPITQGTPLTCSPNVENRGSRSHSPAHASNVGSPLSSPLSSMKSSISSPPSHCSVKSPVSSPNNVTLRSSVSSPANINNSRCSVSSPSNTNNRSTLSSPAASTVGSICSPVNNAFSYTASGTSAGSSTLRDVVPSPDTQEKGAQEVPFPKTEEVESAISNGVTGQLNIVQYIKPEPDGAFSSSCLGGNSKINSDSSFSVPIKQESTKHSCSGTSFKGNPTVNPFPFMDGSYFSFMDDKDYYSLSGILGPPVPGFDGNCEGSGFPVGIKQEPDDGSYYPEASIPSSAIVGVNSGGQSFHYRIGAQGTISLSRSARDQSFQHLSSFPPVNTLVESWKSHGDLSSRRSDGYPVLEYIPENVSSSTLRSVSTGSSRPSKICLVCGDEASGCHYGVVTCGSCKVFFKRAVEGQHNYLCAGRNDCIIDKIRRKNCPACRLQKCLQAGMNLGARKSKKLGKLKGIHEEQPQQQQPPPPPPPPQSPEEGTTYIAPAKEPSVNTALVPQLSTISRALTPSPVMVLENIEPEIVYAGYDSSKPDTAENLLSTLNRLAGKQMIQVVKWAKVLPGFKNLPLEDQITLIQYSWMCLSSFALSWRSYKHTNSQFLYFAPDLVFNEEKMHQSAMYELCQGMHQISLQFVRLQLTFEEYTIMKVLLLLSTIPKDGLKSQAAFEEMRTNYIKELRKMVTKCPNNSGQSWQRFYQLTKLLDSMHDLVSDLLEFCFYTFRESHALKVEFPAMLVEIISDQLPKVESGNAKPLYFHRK
Procedure: Mineralocorticoid Receptor Binding Assay:
The full length human MR gene is cloned from a human kidney or human brain cDNA library. Briefly, using synthetic oligonucleotide primers (Eli Lilly and Company, Indianapolis) directed to nucleotides 20-54 and 3700-3666 of the human MR, polymerase chain reaction (PCR) is performed under standard conditions using a human cDNA library. The PCR reaction is performed in a final volume of 50 μl containing about 1 μl of a 50× stock solution of polymerase; about 1 μl of a 50× stock solution of dNTP; about 5 μl of an appropriate PCR buffer; about 1 μl of each primer; about 5 μl of a H. kidney or H. brain cDNA library; and about 36 μl of water. The reaction is allowed to denature for about 30 seconds at 95 degrees Celsius, anneal for about 30 seconds at 55 degrees Celsius, and extend for about 5 minutes at 72 degrees Celsius, the sequence being repeated for a total of about 35 cycles. The desired PCR product (3.68 Kb) is confirmed by gel electrophoresis and subsequently cut from the gel and stored at about −20 degrees Celsius until extraction. To extract the cDNA product from the agarose gel, the QIAEX II Gel Extraction protocol (QIAGEN, Inc.) is employed according to the manufacturer's instructions. Following extraction, the MR cDNA is cloned into an appropriate cloning vector (Zero Blunt TOPO PCR Cloning Kit (Invitrogen, Inc.) and a pAcHLT-baculovirus transfer vector (B.D./Pharminogen), then expressed in SF9 insect cells, essentially according to manufacturer's instructions. Sf9 cells are grown at a scale where gram quantity cell pellets are obtained for subsequent use in the MR binding assay. Harvested cell pellets are lysed by repeated freeze-thaw cycles (about 4) in a suitable lysis buffer then centrifuged at about 1×10^3 G (with the supernatant being saved for future assays).
MR binding assays are performed in a final total volume of about 250 μl containing about 20-25 μg of protein and 0.5 nM of [^3H]-aldosterone plus varying concentrations of test compound or vehicle. The assay binding buffer consists of 30 mM sodium molybdate, 30 mM of TRIS-HCl, 5 mM sodium phosphate, 5 mM sodium pyrophosphate, and about 10% glycerol, pH=7.5.
Briefly, assays are prepared at RT in 96-well Falcon 3072 plates, each well containing 210 μl of binding buffer, 10 μl of [^3H]-aldosterone, 10 μl of test compound/vehicle, and 20 μl of the resuspended receptor protein extract. Incubations are carried out at 4 degrees Celsius with shaking for about 16 hours. 200 μl aliquots of each incubation are filtered onto Millipore HA 0.45 micron 96-well filter plates, pre-moistened with cold 30 mM TRIS-HCl. The filter plates are suctioned dry with vacuum and immediately washed 3× with cold 30 mM TRIS-HCl. The plates are then punched out and the amount of receptor-ligand complex is determined by liquid scintillation counting using 4 ml of Ready Protein Plus™ liquid scintillation cocktail.
IC50 values (defined as the concentration of test compound required to decrease [^3H]-aldosterone binding by 50%) are then determined. Ki values for each respective test compound can then be calculated by application of the Cheng-Prusoff equation as described in Cheng et al., Relationship Between The Inhibition Constant (Ki) and The Concentration of Inhibitor Which Causes 50% Inhibition (IC50) of an Enzymatic Reaction, Biochem. Pharmacol., 22: 3099-31088; (1973).

Ki, ≤ 500 nM:
Cc1cc(C2(c3cc(C)c(O)c(C)c3)C(=O)N(Cc3ccccc3F)c3ccccc32)cc(C)c1O [Example 50, 1-(2-Fluoro-benzyl)-3,3-bis-(4-hydroxy-3,5-dimethyl-phenyl)-1,3-dihydro-indol-2-one]
Cc1cc(C2(c3cc(C)c(O)c(C)c3)C(=O)N(Cc3ccccc3C(F)(F)F)c3ccccc32)cc(C)c1O [Example 53, 3,3-Bis-(4-hydroxy-3,5-dimethyl-phenyl)-1-(2-trifluoromethyl-benzyl)-1,3-dihydro-indol-2-one]
Cc1cc(C2(c3cc(C)c(O)c(C)c3)C(=O)N(Cc3ccccc3-c3ccccc3)c3ccccc32)cc(C)c1O [Example 54, 1-Biphenyl-2-ylmethyl-3,3-bis-(4-hydroxy-3,5-dimethyl-phenyl)-1,3-dihydro-indol-2-one]
COc1cccc(CN2C(=O)C(c3cc(C)c(O)c(C)c3)(c3cc(C)c(O)c(C)c3)c3ccccc32)c1 [Example 56, 3,3-Bis-(4-hydroxy-3,5-dimethyl-phenyl)-1-(3-methoxy-benzyl)-1,3-dihydro-indol-2-one]
Cc1cc(C2(c3cc(C)c(O)c(C)c3)C(=O)N(Cc3ccc(Br)cc3)c3ccccc32)cc(C)c1O [Example 58, 1-(4-Bromo-benzyl)-3,3-bis-(4-hydroxy-3,5-dimethyl-phenyl)-1,3-dihydro-indol-2-one]
Cc1cc(C2(c3cc(C)c(O)c(C)c3)C(=O)N(Cc3ccc([N+](=O)[O-])cc3)c3ccccc32)cc(C)c1O [Example 62, 3,3-Bis-(4-hydroxy-3,5-dimethyl-phenyl)-1-(4-nitro-benzyl)-1,3-dihydro-indol-2-one]
Cc1cc(C2(c3cc(C)c(O)c(C)c3)C(=O)N(Cc3ccccc3Br)c3ccccc32)cc(C)c1O [Example 63, 1-(2-Bromo-benzyl)-3,3-bis-(4-hydroxy-3,5-dimethyl-phenyl)-1,3-dihydro-indol-2-one]
Cc1cc(C2(c3cc(C)c(O)c(C)c3)C(=O)N(Cc3cccc(Br)c3)c3ccccc32)cc(C)c1O [Example 64, 1-(3-Bromo-benzyl)-3,3-bis-(4-hydroxy-3,5-dimethyl-phenyl)-1,3-dihydro-indol-2-one]
Cc1cc(C2(c3cc(C)c(O)c(C)c3)C(=O)N(Cc3ccccc3[N+](=O)[O-])c3ccccc32)cc(C)c1O [Example 65, 3,3-Bis-(4-hydroxy-3,5-dimethyl-phenyl)-1-(2-nitro-benzyl)-1,3-dihydro-indol-2-one]
Cc1cc(C2(c3cc(C)c(O)c(C)c3)C(=O)N(Cc3cccc(F)c3F)c3ccccc32)cc(C)c1O [Example 66, 1-(2,3-Difluoro-benzyl)-3,3-bis-(4-hydroxy-3,5-dimethyl-phenyl)-1,3-dihydro-indol-2-one]
Cc1cc(C2(c3cc(C)c(O)c(C)c3)C(=O)N(Cc3ccc(OC(F)(F)F)cc3)c3ccccc32)cc(C)c1O [Example 67, 3,3-Bis-(4-hydroxy-3,5-dimethyl-phenyl)-1-(4-trifluoromethoxy-benzyl)-1,3-dihydro-indol-2-one]
Cc1cc(C2(c3cc(C)c(O)c(C)c3)C(=O)N(Cc3ccc(C(F)(F)F)cc3C(F)(F)F)c3ccccc32)cc(C)c1O [Example 68, 1-(2,4-Bis-trifluoromethyl-benzyl)-3,3-bis-(4-hydroxy-3,5-dimethyl-phenyl)-1,3-dihydro-indol-2-one]
Cc1cc(C2(c3cc(C)c(O)c(C)c3)C(=O)N(Cc3cccc(C)c3F)c3ccccc32)cc(C)c1O [Example 70, 1-(2-Fluoro-3-methyl-benzyl)-3,3-bis-(4-hydroxy-3,5-dimethyl-phenyl)-1,3-dihydro-indol-2-one]
Cc1cc(C2(c3cc(C)c(O)c(C)c3)C(=O)N(Cc3ccc([N+](=O)[O-])o3)c3ccccc32)cc(C)c1O [Example 73, 3,3-Bis-(4-hydroxy-3,5-dimethyl-phenyl)-1-(5-nitro-furan-2-ylmethyl)-1,3-dihydro-indol-2-one]
